Test results: US4816490A, “Novel therapeutic use of a derivative of indane dione and the pharmaceutical compositions intended for this use” (priority 1987, dated 1989)

Experiments:
[1] = test system: hyperlipidaemia induced by TRITON WR 1339; experiment: Hyperlipidaemia induced by TRITON WR 1339 in the Wistar rat; assay type: in vivo; settings: for Dose dependence of hypolipaemiant activity: 250 and 500 mg/kg
Protocol: Feeding by standard Regimen UAR A04
Drinking water ad libitum
6 animals per dose in a cage in MAKROLON of 60×40 cm filled with shavings of wood.
10 mn after: administration of the test compound
6 hours after: 1st sampling of the blood at the retro-orbital sinus
Total cholesterol by the colorimetric method of RICHMOND
Cholesterol in HDL by the colorimetric method of RICHMOND after precipitation by CONCANAVALIN A
Cholesterol in LDL by the colorimetric method of RICHMOND after precipitation by CONCANAVALIN A
Total lipids by the Zollner's sulphophosphovanillic method
Triglycerids by the BUCOLO's enzymatic method.

[2] = Acute toxicity after single intraperitoneal administration; assay type: in vivo; settings: mouse, in vivo, ip, calculated LD 50 (about)
Description: (§1) Male and female mice of Swiss strain weighing from 22 to 25 g of body weight were free of pathogen specific organisms (EOPS), stemming from breeding CERJ (53860 LE GENEST (France) and acclimated for at least 8 days in the animalry of the firm.
(§2) Except where stipulated to the contrary, in the tables giving the results, 10 animals of the same sex for each dose were housed in cages of MAKROLON (Safi) of 40 cm by 25 cm filled with shaving of wood. Standard feeding for rats and mice, tablets UAR and tap water ad libitum.
(§3) The compounds were administered without previous fasting either orally (gastric tubing using a metallic oesophageous sonde) at a rate of 0.5 ml or 1 ml per 20 g of body weight of an aqueous suspension of the test compound in a 3% solution of arabic gum, or intraperitoneally at a rate of 0.5 ml or 1 ml per 20 g of body weight of the test compound suspended in an isotonic saline solution containing 3% of arabic gum.
(§4) For 6 days after the single administration and then every day for 15 days.
(§5) When necessary, the mean lethal doses (LD 50) were calculated by the method of Behrens and Karber (BK) and Miller and Tainter (MT). The latter allowing to supply with, for the threshold of probability P=0.05 a limit of confidence for the LD 50. Further calculated were the LDo i.e. DMT=maximal doses always tolerated and the LD100 i.e. DMM=minimal doses always lethal.

[3] = test system: atheromatous damages of the aorta, Wistar rats; experiment: Histopathological examination of atheroma in rats on atheromatogenous diet; assay type: in vivo, rat; settings: 100 mg/kg
Description: (§6) The method utilized for the test was that, slightly altered of Aubert D. Feraud J. C., Lacaze B., Pepino., Ponak E. et Podesta M. as described in Atherosclerosis, Vol. 20 (1974), p. 263-280 (Experimental Atherogenesis in the Wistar Rat).
(§7) Diet: standard tablets UAE AO 3 enriched in cholesterol (0.5%) and in cholic acid (0.5).
The aorta, livers, hearts of the rats after sacrifice were […] with an aqueous solution of Bouin's Reagent and embedded in paraffin after washing with alcohols at increasing concentration and with toluene. The hearts were kept in blocks of paraffin for a further examination when necessary. The livers were stained using the technique of Hematein-eosin and the aorta were stained using the techniques of
orcein-light green to evidence the structural damages of the elastic strips
periodic acid, then Schiff's Reagent to locate the deposits of mucopolysaccharids […]
The intensity of the observed damages and the degree of atheromatosis were determined using one of the following scores: […]
The histopathological examinations provided individual scores which were analyzed, then reported for each batch. Three parameters were distinctly determined: […]
2. The intensity of the atheromatous damages found, determined by the previously-given scores.
3. The number of the observed atheromatous damage calculated on the basis of a batch of 15 animals each.

[4] = test system: hyperlipidaemia / atheroma in Wistar rats on atheromatogenous regimen; experiment: Biochemical testings in rats on atheromatogenous (cholesterol-rich) diet, including atheroma risk ratios; assay type: in vivo, rat; settings: 100 mg/kg; for Cholesterol in LDL, variation in comparison to controls-Diet: LDL (estimate)
Description: as §6
(§8) Female rats of Wistar strain, free of specific pathogenic germs (EOPS) stemming from the breeding EVIC-CEBA
Mean body weight: 160-180 g at the start of the test
as §7
15 animals per each batch and by cage in MACROLON (Safi) of 59 cm×38 cm, 5 cm filled with a litter of shavings of wood.
(§9) Diet of the animals: the animals were given the atheromatogenous regimen then while maintaining the same regimen, they were given for 4 days 250,000 IU/kg of vitamin D2 dissolved in olive oil (Sterogyl 15H). The compounds to be tested were given thereafter for 4 weeks immediately after the termination of the atheromatogenous regimen.
At the end of these studies the following tests were performed on all surviving animals.
Esterified blood cholesterol
Cholesterol in LDL (estimate)
The total score for each product was obtained by adding each individual scores and allowed the following classification
The protection against the atheromatogenous risk was evaluated using the following ratios: […]

[5] = test system: atheroma / hyperlipidaemia in Wistar rats on atheromatogenous regimen; experiment: Overall hypolipaemiant and anti-atheromatous classification (summarized scores); assay type: in vivo, rat; settings: 100 mg/kg
Description: as §6, §8, §7, §9

[6] = Acute toxicity after single oral administration; assay type: in vivo; settings: mouse, in vivo, po
Description: as §1, §2, §3, §4, §5
The compound was administered in a single dose to batches of 10 male or female mice weighing […] at a rate of 1 ml per 20 g of body weight.

[7] = test system: atheromatous deposits of the aorta, Wistar rats; experiment: Macroscopic examination of aorta atheroma in rats on atheromatogenous diet; assay type: in vivo, rat; settings: 100 mg/kg
Description: as §6, §7
After the studies, all the animals were sacrificed by subtotal puncture of the blood in the abdominal aorta after anesthesia by intravenous sodium Pentobarbital. The hearts, livers, aortas on which the score of atheroma was determined were taken. For this purpose, the aortas were longitudinally cut, then spread to allow a whole insight of the endothelial coating from the aortic valves until the branching of the coeliac stem (lower portion of the thoracic aorta).
Aorta was from an anatomic point of view divided into two parts:
Zone 1: aortic valves-first intercostal arters
Zone 2: first intercostal arters and branching of the coeliac stem
The intensity of the atheromatous deposits was determined according to the following scores:
Score 1: Discrete (<1 mm) and few deposit
Score 2: Numerous and discrete deposits
Score 3: Numerous and marked deposits (<1 mm)
Score 4: Very marked deposits or very numerous deposits but letting some uninfiltrated areas
Score 5: Deposits on the whole epithelium
Two parameters were considered:
the intensity of the observed damages determined according to the previously-given scores.

[8] = Maximal tolerated dose on chronic administration in the rat; settings: in vivo
[9] = test system: female rats of Wistar strain; experiment: Tolerance, mortality and body weight in the rat atheroma study
Description: as §8, §9
The behavior and the changes in weight of the animals were surveyed every day as well as by weekly weighing.

CC(C)OC(=O)C(C)(C)Oc1ccc(C(=O)c2ccc(Cl)cc2)cc1 [Procetofene, reference compound]
Dose dependence of hypolipaemiant activity ([1]; 6 hours after TRITON WR 1339): directly proportional to the doses | Dose dependence of hypolipaemiant activity ([1]; 24 hours after TRITON WR 1339): inversely proportional to the dose | Cholesterol HDL/LDL score vs 250 mg/kg Procetofene ([1]; 6 hours after, 250 mg/kg oral): 1.00 | Total Score vs 250 mg/kg Procetofene ([1]; 6 hours after, 250 mg/kg oral): 4.00 | Total cholesterol score vs 250 mg/kg Procetofene ([1]; 6 hours after, 250 mg/kg oral): 1.00 | Total lipids score vs 250 mg/kg Procetofene ([1]; 6 hours after, 250 mg/kg oral): 1.00 | Triglycerids score vs 250 mg/kg Procetofene ([1]; 6 hours after, 250 mg/kg oral): 1.00 | Cholesterol HDL/LDL score vs 250 mg/kg Procetofene ([1]; 6 hours after, 500 mg/kg oral): 1.53 | Total Score vs 250 mg/kg Procetofene ([1]; 6 hours after, 500 mg/kg oral): 5.12 | Total cholesterol score vs 250 mg/kg Procetofene ([1]; 6 hours after, 500 mg/kg oral): 1.65 | Total lipids score vs 250 mg/kg Procetofene ([1]; 6 hours after, 500 mg/kg oral): 0.65 | Triglycerids score vs 250 mg/kg Procetofene ([1]; 6 hours after, 500 mg/kg oral): 1.29 | Cholesterol HDL/LDL score vs 250 mg/kg Procetofene ([1]; 24 hours after, 250 mg/kg oral): 1.00 | Total Score vs 250 mg/kg Procetofene ([1]; 24 hours after, 250 mg/kg oral): 4.00 | Total cholesterol score vs 250 mg/kg Procetofene ([1]; 24 hours after, 250 mg/kg oral): 1.00 | Total lipids score vs 250 mg/kg Procetofene ([1]; 24 hours after, 250 mg/kg oral): 1.00 | Triglycerids score vs 250 mg/kg Procetofene ([1]; 24 hours after, 250 mg/kg oral): 1.00 | Cholesterol HDL/LDL score vs 250 mg/kg Procetofene ([1]; 24 hours after, 500 mg/kg oral): 0.30 | Total Score vs 250 mg/kg Procetofene ([1]; 24 hours after, 500 mg/kg oral): 3.33 | Total lipids score vs 250 mg/kg Procetofene ([1]; 24 hours after, 500 mg/kg oral): 0.85 | Triglycerids score vs 250 mg/kg Procetofene ([1]; 24 hours after, 500 mg/kg oral): 1.01 | Antihyperlipaemiant activity, compound vs Procetofene ([1]; same doses (250 and 500 mg/kg)): antihyperlipaemiant activity about equal

CCOC(=O)C(C)(C)Oc1ccc(Cl)cc1 [Clofibrate]
LD50 [2]: ~1800 mg/kg | Histological examination score [3]: 2.00 | Cholesterol in LDL / Cholesterol in HDL ratio (risk of atheroma) [4]: 5.35 | Cholesterol in LDL / Cholesterol in HDL, % in comparison with Controls-Diet [4]: -78.13% | Total Blood Cholesterol / Cholesterol in HDL ratio (risk of atheroma) [4]: 6.69 | Total Blood Cholesterol / Cholesterol in HDL, % in comparison with Controls-Diet [4]: -74.91% | Cholesterol in HDL, variation in comparison to controls-Diet ([4]; 4 weeks): +104.17% | Esterified cholesterol, variation in comparison to controls-Diet ([4]; 4 weeks): -55.00% | Total Blood lipids, variation in comparison to controls-Diet ([4]; 4 weeks): -35.43% | Total blood cholesterol, variation in comparison to controls-Diet ([4]; 4 weeks): -48.75% | Triglycerids, variation in comparison to controls-Diet ([4]; 4 weeks): -24.14% | Cholesterol in LDL, variation in comparison to controls-Diet ([4]; 4 weeks): -55.37% | Classification of the anti-atheromatous action [5]: Compound of the invention>Fenofibrate>Clofibrate | LD50 [6]: 2500 mg/kg | Macroscopical examination total score [7]: 2.00 | Damaged animals, % of decrease in comparison with Controls-Diet ([7]; macroscopical): -18.18% | Damaged animals, percentage ([7]; macroscopical): 81.82% | Damaged animals, score in relation to Clofibrate ([7]; macroscopical): 1.00 | Intensity of the damages, % of decrease in comparison with Controls-Diet ([7]; macroscopical): -25.65% | Intensity of the damages, score in relation to Clofibrate ([7]; macroscopical): 1.00 | MTD [8]: ~100 mg/kg | Mortality ([9]; rat, in vivo): 4/15

CC(C)OC(=O)C(C)(C)Oc1ccc(C(=O)c2ccc(Cl)cc2)cc1 [Fenclofibrate]
Histological examination score [3]: 2.13 | Atheromatous risk total score [4]: 0.23 | Cholesterol in LDL / Cholesterol in HDL, % in comparison with Controls-Diet [4]: -12.35% | Cholesterol in LDL / Cholesterol in HDL, score in comparison with Clofibrate [4]: 0.16 | Total Blood Cholesterol / Cholesterol in HDL, % in comparison with Controls-Diet [4]: -5.06% | Total Blood Cholesterol / Cholesterol in HDL, score in comparison with Clofibrate (=1) [4]: 0.07 | Cholesterol in HDL score (Clofibrate=1) ([4]; 4 weeks): 0.04 | Cholesterol in HDL, variation in comparison to controls-Diet ([4]; 4 weeks): +4.17% | Cholesterol in LDL score (Clofibrate=1) ([4]; 4 weeks): 0.16 | Esterified cholesterol score (Clofibrate=1) ([4]; 4 weeks): 0.40 | Esterified cholesterol, variation in comparison to controls-Diet ([4]; 4 weeks): -22.08% | Total Blood lipids score (Clofibrate=1) ([4]; 4 weeks): 0.29 | Total Blood lipids, variation in comparison to controls-Diet ([4]; 4 weeks): -10.31% | Total blood cholesterol score (Clofibrate=1) ([4]; 4 weeks): 0.02 | Total blood cholesterol, variation in comparison to controls-Diet ([4]; 4 weeks): -1.09% | Triglycerids, variation in comparison to controls-Diet ([4]; 4 weeks): -25.86% | Cholesterol in LDL, variation in comparison to controls-Diet ([4]; 4 weeks): -8.69% | Biochemistry total score ([4]; sum of individual scores, Clofibrate=1 each): 1.98 | Classification of the anti-atheromatous action [5]: Compound of the invention>Fenofibrate>Clofibrate | Total Score (biochemistry, atheromatous risk, macroscopical, histological) [5]: 6.51 | Macroscopical examination total score [7]: 2.17 | Damaged animals, % of decrease in comparison with Controls-Diet ([7]; macroscopical): -16.67% | Damaged animals, percentage ([7]; macroscopical): 83.33% | Damaged animals, score in relation to Clofibrate ([7]; macroscopical): 0.92 | Intensity of the damages, % of decrease in comparison with Controls-Diet ([7]; macroscopical): -31.97% | Intensity of the damages, score in relation to Clofibrate ([7]; macroscopical): 1.25 | Intensity of the damages, quotation ([7]; macroscopical, scores 0 to 5): 1.83 | Mortality ([9]; 100 mg/kg, 4 weeks, atheromatogenous regimen (batch No. 2: 2/15)): 3/15
